From patent US20120115754A1, “METHOD FOR DIAGNOSING AND/OR TYPING RENAL CELL CARCINOMA” (priority 2009, published 2012) come the findings set out here.

Assay [1] relates to tumor kidney (RCC) tissue lysate, tyrosine kinase activity. As to the kind of experiment: Peptide microarray (PamChip) kinase activity profiling of tumor kidney lysate with kinase inhibitor added to the lysate. The class given is biochemical, human. Here is the method: (§1) Both normal and tumor kidney tissue were derived from resection material immediately after surgery. These tissues were snap-frozen and were stored at −85° C. The tissues were cut in slices of 10 μm and stored. For protein extraction 6 slices were lysed in 100 μL of Mammalian Protein Extraction Buffer (M-PER), a lysis buffer containing HALT protease and phosphatase inhibitors, for 60 minutes on ice. The protein concentration was determined for each sample and for the analysis on a peptide microarray comprising 144 peptides typically 5 μg of protein was used. […]
(§2) To assess the effect of a kinase inhibitor, the kinase inhibitors sorafinib or sunitinib were added to the lysate before application onto the peptide microarray. During 60 cycles of pumping the lysate reaction mixture through the array, peptide phosphorylation was detected by the fluorescently labelled PY20 anti-phosphotyrosine antibody present in the lysate reaction mixture. Real time data were obtained by measuring fluorescence of the bound anti-phosphotyrosine antibody after each 5 cycles. […] Signals for each spot on the image were quantified. Image quantification and data processing was conducted with dedicated PamGene software (Evolve and Bionavigator). […]

The subject of assay [2] is normal kidney tissue (NK) lysate, tyrosine kinase activity. As to the kind of experiment: Peptide microarray (PamChip) kinase activity profiling of normal kidney lysate with kinase inhibitor added to the lysate. Type of assay: biochemical, human. As for the experimental part: as §1, §2

Regarding `CNC(=O)c1cc(Oc2ccc(NC(=O)Nc3ccc(Cl)c(C(F)(F)F)c3)cc2)ccn1` [sorafinib, sorafenib], the “phosphorylation pattern compared to the control (DMSO)” value in assay [1] (lysate of tumor kidney (RCC) tissue of one patient, inhibitor pipetted into lysate, FIG. 4 heatmap) is “decreased phosphorylation pattern”; in assay [2] (lysate of normal kidney tissue (NK) of one patient, inhibitor pipetted into lysate, FIG. 4 heatmap) it was “decreased phosphorylation pattern”. In addition, the “inhibition of peptide phosphorylation, peptides indicated by downwards arrows” value in assay [1] (tumor tissue, on-chip treatment, in comparison to other peptides, FIG. 4) is on record as “highly inhibited”. The “inhibition of peptide phosphorylation, peptides indicated by upward arrows” value in assay [2] (normal tissue, on-chip treatment, candidate markers for off-target effects, FIG. 4) is “show inhibition”.
